Assay [1] addresses T1, recombinant human Wee1A kinase (Homo sapiens, UniProt P30291).
T1 construct: full length Wee1 kinase was expressed by baculovirus in insect cells; purchased Invitrogen PV3817; host or cells: insect cells (baculovirus)
Nature of the assay: Wee1A kinase binding assay (LanthaScreen Eu time-resolved FRET). The protocol:
This time resolved-FRET binding assay was performed in white 384-well low volume plates (Greiner, cat #784075), at room temperature in kinase buffer A (KBA; Invitrogen cat #PV3189), consisting of 50 mM HEPES-NaOH (pH 7.5), 0.01% Brij-35, 10 mM MgCl2, and 1 mM EGTA. 5 μL of compound (diluted in reaction buffer, to 1% DMSO) were added to various wells in the plate, followed by 5 μL each of recombinant human Wee1A kinase (full length Wee1 kinase was expressed by baculovirus in insect cells using a N-terminal GST tag (MW: 99.1 kDa) (Invitrogen cat #PV3817) and LanthaScreen Eu-anti-GST antibody (Invitrogen, cat #PV5594). After this, 5 μL of kinase tracer 178 (Invitrogen, cat #PV5593) was added to the plate and the plate was incubated for 60 minutes at room temperature. The final assay conditions in each well were: 30 nM tracer 178, 5 nM Wee1A kinase and 2 nM Eu-labeled antibody in total assay volume of 15 μL. An Envision 2104 (Perkin-Elmer) Plate Reader with the following time-resolve fluorescence setting was used for performing LanthaScreen kinase binding assay. • Excitation 320 nm (30 nm bandpass) • Kinase Tracer Emission 665 nm (10 nm bandpass) • LanthaScreen Eu-anti-Tag Antibody Emission 615 nm (10 nm bandpass) • Dichroic Mirror Instrument dependent • Delay Time 100 μs • Integration Time 200 μs
(§1) To calculate the emission ratio, the acceptor/tracer emission ([…]) was divided by the antibody/donor emission ([…]) and the average of duplicate measurement was used for calculations. Data plotting, analysis of binding, and curve fitting was done using Excel add-in XLfit version 5.5.0.5 (IDBS, Guildford, United Kingdom). […] “NT” means not tested.
A general note: TR-FRET usually uses a lanthanide donor and a delayed reading to cut background.

The target of assay [2] is T2, Myt1 kinase (recombinant PMYT-1) (Homo sapiens, UniProt Q99640).
T2 construct: full length PMYT-1 was expressed by baculovirus in insect cells; purchased Invitrogen A30984; host or cells: insect cells (baculovirus)
T2 sequence (Q99640 1-499): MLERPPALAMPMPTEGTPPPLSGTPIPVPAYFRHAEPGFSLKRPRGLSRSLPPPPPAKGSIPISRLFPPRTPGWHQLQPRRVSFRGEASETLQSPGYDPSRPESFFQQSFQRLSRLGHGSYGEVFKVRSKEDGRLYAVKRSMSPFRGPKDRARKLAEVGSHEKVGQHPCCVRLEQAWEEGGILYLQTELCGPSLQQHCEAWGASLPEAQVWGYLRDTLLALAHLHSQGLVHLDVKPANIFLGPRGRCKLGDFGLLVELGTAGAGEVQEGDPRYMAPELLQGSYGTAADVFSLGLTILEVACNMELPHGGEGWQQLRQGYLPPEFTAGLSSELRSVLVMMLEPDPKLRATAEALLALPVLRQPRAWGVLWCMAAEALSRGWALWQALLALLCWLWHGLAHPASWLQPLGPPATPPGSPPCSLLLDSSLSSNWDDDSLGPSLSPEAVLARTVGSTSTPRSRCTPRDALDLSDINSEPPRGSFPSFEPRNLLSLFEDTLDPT
The experiment in a line: Myt1 kinase binding assay (LanthaScreen Eu Kinase Binding Assay). The settings on record: 3 nM tracer 178, 2.5 nM PMYT-1, 1 nM Eu-labeled antibody; read-out: Myt1 kinase Binding IC50. Here is the method: as §1
We used a LanthaScreen Europium (Eu) Kinase Binding Assay to determine the binding affinities (IC50) of compounds to Myt1 kinase. […] “NT” designates that the compound was not tested in this assay.

Assay [3] has as its target T3, Wee1A kinase (CDK1 Tyr15 phosphorylation in ACHN renal cell carcinoma cells) (Homo sapiens, UniProt P30291).
T3 construct: pCDK1 Tyr15 immunofluorescence read-out
The experiment in a line: High-content imaging of pCdk1 Y15, Wee1A kinase target engagement in ACHN cells. The assay is classed as cell-based. Here is the method:
Each of an ACHN renal cell carcinoma cell line (ATCC) and a DAOY medulloblastoma cell line, and an A427 lung cancer line were cultured in Minimum Essential Medium Eagle supplemented with 10% fetal calf serum (Sigma), 1% Penicillin-Streptomycin and 10 mM HEPES buffer (HyClone). Cell cultures were kept in a humidified incubator at 37 °C and 5% CO2. Cells were routinely tested for Mycoplasma contamination.
For target engagement assessment of Wee1A kinase inhibition, high-content imaging of ACHN renal cell carcinoma cells was used for quantification of CDK1 phosphorylated on tyrosine 15 by immunofluorescence (“IF”). 20,000 cells per well were seeded in tissue culture treated 96 well plates and treated with compounds at concentrations ranging from 7 to 5,000 nM or from 0.3 to 200 nM for 4h. Cells were fixated for 15 minutes in 4% paraformaldehyde solution, washed in PBS and permeabilized using 0.2% Triton X-100. Blocking was performed for 1 h at RT using Blocker FL Fluorescent Blocking Buffer (Thermo Scientific), thereafter cells were incubated with primary antibody (rabbit anti-pCDK1 Y^15, #4539, Cell Signaling Technology) at 4 °C ON. Alexa Fluor Plus 647 labelled goat anti-rabbit (A32733, Thermo Scientific) was used as secondary antibody. After washing in PBS, nuclei were stained with DAPI solution for 10 min at RT, protected from light. Cells were imaged using an ImageXpress Pico automated imaging system and CellReporter Xpress software (Molecular Devices). The percentage of cells with nuclear positivity for pCdk1 Y^15 compared to DMSO control was determined for each well and drug dose response curves and EC50 values were calculated and visualized using GraphPad Prism. Target engagement for Wee1A kinase can also be measured using the same AlphaLISA assay in OVCAR3 cells, an ovarian cancer cell line. NIH:OVCAR-3 (OVCAR3) cells are cultured in RPMI-1640 medium supplemented with 0.01 mg/ml insulin, 20% FBS, 1% Penicillin-Streptomycin and 10 mM HEPES buffer. 14,000 cells per well are seeded into 96 well tissue culture plates in full medium. Twenty-four hours post seeding, cells are treated with compound for 4 hours at concentrations ranging from 0.017 nM to 1000 nM.

[4] abbreviates: 30 nM tracer 178, 5 nM Wee1A kinase, 2 nM Eu-labeled antibody, 60 minutes at room temperature, read-out: Wee1A kinase Binding IC50.
[5] abbreviates: 4 h treatment, nuclear positivity for pCdk1 Y15 vs DMSO control, read-out: CDK1 Tyr15 Phosphorylation EC50.
[6] abbreviates: read-out: CDK1 Tyr15 Phosphorylation EC50, 4 h treatment, nuclear positivity for pCdk1 Y15 vs DMSO control.

Read-outs that look alike come from different tables or passages of the source.

T1 sequence (P30291 whole entry): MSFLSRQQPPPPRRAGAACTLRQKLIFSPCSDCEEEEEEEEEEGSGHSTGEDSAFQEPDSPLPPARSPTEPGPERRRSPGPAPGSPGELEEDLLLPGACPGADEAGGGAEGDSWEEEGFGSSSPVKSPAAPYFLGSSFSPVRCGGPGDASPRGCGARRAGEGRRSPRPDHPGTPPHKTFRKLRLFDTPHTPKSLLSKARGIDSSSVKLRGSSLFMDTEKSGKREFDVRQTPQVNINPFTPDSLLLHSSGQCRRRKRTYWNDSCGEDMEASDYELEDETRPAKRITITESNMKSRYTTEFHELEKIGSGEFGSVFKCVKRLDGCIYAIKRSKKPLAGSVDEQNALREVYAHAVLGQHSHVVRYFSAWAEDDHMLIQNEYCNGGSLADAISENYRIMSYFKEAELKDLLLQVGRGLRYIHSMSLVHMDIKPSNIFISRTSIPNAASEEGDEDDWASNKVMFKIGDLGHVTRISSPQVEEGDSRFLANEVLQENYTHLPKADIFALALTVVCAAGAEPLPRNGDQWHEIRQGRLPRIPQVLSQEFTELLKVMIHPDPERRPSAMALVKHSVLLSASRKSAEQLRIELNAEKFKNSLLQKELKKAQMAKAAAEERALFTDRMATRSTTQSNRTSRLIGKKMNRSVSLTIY
T3 sequence (P30291 whole entry): as above

For the compound `C=CCn1c(=O)c2cnc(Nc3ccc(Cl)cc3)nc2n1-c1cccc(O[C@H]2CCCN(C)C2)n1` [Compound 162, 6-[(4-chlorophenyl)amino]-1-(6-{[(3S)-1-methylpiperidin-3-yl]oxy}pyridin-2-yl)-2-(prop-2-en-1-yl)-1H,2H,3H-pyrazolo[3,4-d]pyrimidin-3-one], the IC50 is 10 to 100 nM in assay [1] (setting [4]) and 100 to 500 nM in assay [2]. The corresponding values for `C=CCn1c(=O)c2cnc(Nc3ccc(Cl)cc3)nc2n1-c1cccc(N(C)[C@@H]2CCCN(C)C2)n1` [Compound 163, (R)-2-allyl-6-((4-chlorophenyl)amino)-1-(6-(methyl(1-methylpiperidin-3-yl)amino)pyridin-2-yl)-1,2-dihydro-3H-pyrazolo[3,4-d]pyrimidin-3-one] are 10 to 100 nM and > 500 nM. Turning to `C=CCn1c(=O)c2cnc(Nc3ccc(Cl)cc3)nc2n1-c1cccc(N(C)[C@H]2CCCN(C)C2)n1` [Compound 164, 1-(6-{[(S)-1-methyl-3-piperidyl]-N-methylamino}-2-pyridyl)-2-allyl-6-(p-chlorophenylamino)-1,2-dihydro-3H-1,2,5,7-tetraazainden-3-one], the IC50 in assay [1] (setting [4]) was 10 to 100 nM; in assay [2], > 500 nM. For the compound `C=CCn1c(=O)c2cnc(Nc3ccc(Cl)cc3)nc2n1-c1cccc(N[C@H]2CCCN(C)C2)n1` [Compound 167, 1-{6-[(S)-1-methyl-3-piperidylamino]-2-pyridyl}-2-allyl-6-(p-chlorophenylamino)-1,2-dihydro-3H-1,2,5,7-tetraazainden-3-one], the results for the IC50 in assay [1] (setting [4]) and in assay [2] were 10 to 100 nM and 100 to 500 nM, respectively. Take `C=CCn1c(=O)c2cnc(Nc3ccnc(C)c3)nc2n1-c1cccc(OC2CCN(C)CC2)c1` [Compound 219, 2-allyl-1-[m-(1-methyl-4-piperidyloxy)phenyl]-6-(2-methyl-4-pyridylamino)-1,2-dihydro-3H-1,2,5,7-tetraazainden-3-one]: in assay [1] (setting [4]), the 50% inhibitory concentration (IC50) was < 10 nM. In assay [3] (setting [5]), the EC50 was in the range of 100 to 500 nM.

Take `C=CCn1c(=O)c2cnc(Nc3cnn(C)c3)nc2n1-c1cccc(OC2CCN(C)CC2)c1` [Compound 221, 2-allyl-1-[m-(1-methyl-4-piperidyloxy)phenyl]-6-(1-methyl-4-pyrazolylamino)-1,2-dihydro-3H-1,2,5,7-tetraazainden-3-one]: in assay [1] (setting [4]), the IC50 was < 10 nM. For the same compound, the EC50 in assay [3] (setting [5]) fell in the range of 500 to 1000 nM.

`C=CCn1c(=O)c2cnc(Nc3ccnc(C)c3)nc2n1-c1cccc(OC2CCNCC2)c1` [Compound 222, 2-allyl-6-(2-methyl-4-pyridylamino)-1-[m-(4-piperidyloxy)phenyl]-1,2-dihydro-3H-1,2,5,7-tetraazainden-3-one]: the IC50 in assay [1] (setting [4]) is < 10 nM. Also, in assay [3] (setting [5]), the EC50 was > 1000 nM. As for `C=CCn1c(=O)c2cnc(Nc3cnn(C)c3)nc2n1-c1cccc(OC2CCNCC2)c1` [Compound 224, 2-allyl-6-(1-methyl-4-pyrazolylamino)-1-[m-(4-piperidyloxy)phenyl]-1,2-dihydro-3H-1,2,5,7-tetraazainden-3-one], the IC50 in assay [1] (setting [4]) was < 10 nM. Moreover, the EC50 in assay [3] (setting [5]) is > 1000 nM. Take `C=CCn1c(=O)c2cnc(Nc3ccc4c(cnn4C)c3)nc2n1-c1cccc(N(C)C2CCN(C)CC2)c1` [Compound 225, 1-{m-[N-methyl (1-methyl-4-piperidyl)amino]phenyl}-2-allyl-6-(1-methyl-1H-indazol-5-ylamino)-1,2-dihydro-3H-1,2,5,7-tetraazainden-3-one]: the IC50 in assay [1] was < 10 nM. The EC50 in assay [3] (setting [6]) is > 1000 nM. The corresponding values for `CCn1c(=O)c2cnc(Nc3ccc4c(cnn4C)c3)nc2n1-c1cccc(N(C)C2CCNCC2)n1` [Compound 286, 1-[6-(N-methyl-N-4-piperidylamino)-2-pyridyl]-2-ethyl-6-(1-methyl-1H-indazol-5-ylamino)-1,2-dihydro-3H-1,2,5,7-tetraazainden-3-one] are < 10 nM and > 1000 nM. Take `C=CCn1c(=O)c2cnc(Nc3cnn(C)c3)nc2n1-c1cccc(O[C@H]2C[C@@H]3CC[C@H]2CN3C)n1` [Compound 294, 6-[(1-methyl-1H-pyrazol-4-yl)amino]-1-(6-{[(1S,4S,5S)-2-methyl-2-azabicyclo[2.2.2]octan-5-yl]oxy}pyridin-2-yl)-2-(prop-2-en-1-yl)-1H,2H,3H-pyrazolo[3,4-d]pyrimidin-3-one]: the IC50 in assay [1] (setting [4]) is 10 to 100 nM. Still for that read-out and setting: then `C=CCn1c(=O)c2cnc(Nc3cnn(C)c3)nc2n1-c1cccc(O[C@@H]2C[C@@H]3CC[C@H]2CN3C)n1` [Compound 295, 6-[(1-methyl-1H-pyrazol-4-yl)amino]-1-(6-{[(1S,4S,5R)-2-methyl-2-azabicyclo[2.2.2]octan-5-yl]oxy}pyridin-2-yl)-2-(prop-2-en-1-yl)-1H,2H,3H-pyrazolo[3,4-d]pyrimidin-3-one], with 10 to 100 nM. As to `C=CCn1c(=O)c2cnc(Nc3ccc4c(cnn4C)c3)nc2n1-c1cccc(OC2CCN(C3COC3)CC2)n1` [Compound 349, 2-allyl-6-((1-methyl-1H-indazol-5-yl)amino)-1-(6-((1-(oxetan-3-yl)piperidin-4-yl)oxy)pyridin-2-yl)-1,2-dihydro-3H-pyrazolo[3,4-d]pyrimidin-3-one], the IC50 in assay [1] (setting [4]) is < 10 nM. The EC50 in assay [3] (setting [5]) is < 100 nM. Take `C=CCn1c(=O)c2cnc(Nc3ccc4cnn(C)c4c3)nc2n1-c1cccc(OC2CCNCC2)n1` [Compound 359, 2-allyl-6-((1-methyl-1H-indazol-6-yl)amino)-1-(6-(piperidin-4-yloxy)pyridin-2-yl)-1,2-dihydro-3H-pyrazolo[3,4-d]pyrimidin-3-one]: in assay [1] (setting [4]), the IC50 is < 10 nM. For the same compound, in assay [3] (setting [5]), the EC50 is < 100 nM.

For the compound `C=CCn1c(=O)c2cnc(Nc3ccc4c(cnn4C)c3)nc2n1-c1cccc(OC2CCN(C)C(C)C2)n1` [Compound 402, rel-2-allyl-1-(6-(((2R,4R)-1,2-dimethylpiperidin-4-yl)oxy)pyridin-2-yl)-6-((1-methyl-1H-indazol-5-yl)amino)-1,2-dihydro-3H-pyrazolo[3,4-d]pyrimidin-3-one], in assay [3] (setting [5]), the EC50 is < 100 nM.

The term IC50 denotes the concentration needed to halve the response being measured. For orientation: EC50 means the concentration needed to bring the measured effect to its halfway point.

The values above are taken from patent publication US20260364080A1, “PYRAZOLO-PYRIMIDINONE COMPOUNDS FOR USE IN METHODS OF INHIBITING WEE1 A KINASE” (Acrivon Therapeutics, Inc., priority 2023, published 2026).
